Counter-ions that a name gives are not always drawn.
Legend:
[1] = target: T1, HCV polymerase (NS5B) type 1b (Hepatitis C virus genotype 1b, UniProt P26663); experiment: Assay of enzyme (HCV polymerase) inhibitory activity, type 1b enzyme; type: biochemical, HCV BK strain (type 1b); settings: HCV polymerase inhibitory activity (IC50), 1b, type 1b enzyme 0.5 μg/ml, 25° C., 60 min
T1 construct: a region encoding NS5B (J Virol 1991 March, 65(3), 1105-13, 544 amino acids after deletion of 47 amino acids on the C-terminal); 6xHis (C); made in house; host or cells: Escherichia coli
Summary of the method: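 Polymerase activity was followed as radiolabelled UTP incorporation by E. coli-expressed, His-tagged NS5B of HCV type 1b lacking its last 47 residues. Conditions: 2 μM UTP, 50 μM other NTPs, Mg2+ buffer at pH 7.5, 25 °C for 60 min. Inhibition relative to compound-free reactions gave IC50.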

[2] = target: T2, HCV polymerase (NS5B) type 1a (Hepatitis C virus genotype 1a, UniProt P26664); experiment: Assay of enzyme (HCV polymerase) inhibitory activity, type 1a enzyme; type: biochemical, HCV type 1a (cloned from the blood of patients); settings: HCV polymerase inhibitory activity (IC50), 1a, type 1a enzyme 1.5 μg/ml, 25° C., 60 min
T2 construct: made in house; host or cells: Escherichia coli (by the 'similar method' of the 1b enzyme)
Summary of the method: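 IC50 values derive from radioactivity of newly synthesized RNA with versus without test compound. The enzyme was C-terminally truncated type 1a NS5B, 1.5 μg/ml, run 60 min at 25° C with 3H-UTP-labelled nucleotides.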

SMILES | IC50 [1] [nM] | IC50 [2] [nM]
CCCc1ccc(CNC(=O)[C@H]2CN(c3nc(C)c(C(=O)O)s3)CCN2S(=O)(=O)c2ccc(C(F)(F)F)cc2)cc1 [Example 339, 4-methyl-2-[(R)-3-(4-propyl-benzylcarbamoyl)-4-(4-trifluoromethyl-benzenesulfonyl)-piperazin-1-yl]-thiazole-5-carboxylic acid] | < 100 | < 100
Cc1nc(N2CCN(S(=O)(=O)c3ccc(OC(F)(F)F)cc3)[C@@H](C(=O)NCc3ccc(C(C)C)cc3)C2)sc1C(N)=O [Example 340, (R)-4-(5-carbamoyl-4-methyl-thiazol-2-yl)-1-(4-trifluoromethoxy-benzenesulfonyl)-piperazine-2-carboxylic acid 4-isopropyl-benzylamide] | < 100 | < 100
CCCc1ccc(CNC(=O)[C@H]2CN(c3nc(C)c(C(=O)O)s3)CCN2S(=O)(=O)c2ccc(OC(F)(F)F)cc2)c(C)c1 [Example 341, 4-methyl-2-[(R)-3-(2-methyl-4-propyl-benzylcarbamoyl)-4-(4-trifluoromethoxy-benzenesulfonyl)-piperazin-1-yl]-thiazole-5-carboxylic acid] | < 100 | < 100
CC(C)c1ccc(CNC(=O)[C@H]2CN(c3ncc(C(=O)O)cn3)CCN2S(=O)(=O)c2ccc(C(F)(F)F)cc2)cc1 [Example 342, 2-[(R)-3-(4-isopropyl-benzylcarbamoyl)-4-(4-trifluoromethyl-benzenesulfonyl)-piperazin-1-yl]-pyrimidine-5-carboxylic acid] | 100 to 1000 | > 1000
Cc1nc(N2CCN(S(=O)(=O)c3ccc(C(F)(F)F)cc3)[C@@H](C(=O)NCc3ccc(N(C)C)cc3)C2)sc1C(=O)O [Example 343, 2-[(R)-3-(4-dimethylamino-benzylcarbamoyl)-4-(4-trifluoromethyl-benzenesulfonyl)-piperazin-1-yl]-4-methyl-thiazole-5-carboxylic acid] | < 100 | < 100
Cc1nc(N2CCN(S(=O)(=O)c3ccc(C(C)C)cc3)[C@@H](C(=O)NCc3ccc(C(C)C)cc3)C2)sc1C(=O)O [Example 344, 2-[(R)-4-(4-isopropyl-benzenesulfonyl)-3-(4-isopropyl-benzylcarbamoyl)-piperazin-1-yl]-4-methyl-thiazole-5-carboxylic acid] | < 100 | < 100
CC(C)c1ccc(CNC(=O)[C@H]2CN(C3CCNC3=O)CCN2S(=O)(=O)c2ccc(C(F)(F)F)cc2)cc1 (stereo partly drawn) [Example 345, (R)-4-(2-oxo-pyrrolidin-3-yl)-1-(4-trifluoromethyl-benzenesulfonyl)-piperazine-2-carboxylic acid 4-isopropyl-benzylamide] | 100 to 1000 | > 1000
CN1CCN(CC(=O)N2CCN(S(=O)(=O)c3ccc(I)cc3)[C@@H](C(=O)NCc3ccc(N(C)C)cc3)C2)CC1 [Example 346, 1-(4-iodo-benzenesulfonyl)-4-[2-(4-methyl-piperazin-1-yl)-acetyl]-piperazine-2-carboxylic acid 4-dimethylamino-benzylamide] | > 1000 | > 1000
CC(C)c1ccc(CNC(=O)[C@H]2CN(C(=O)Nc3ccncc3)CCN2S(=O)(=O)c2ccc(C(F)(F)F)cc2)cc1 [Example 347, (R)-4-(4-trifluoromethyl-benzenesulfonyl)-piperazine-1,3-dicarboxylic acid 3-(4-isopropyl-benzylamide) 1-pyridin-4-ylamide] | 100 to 1000 | 100 to 1000
CC(C)c1ccc(CNC(=O)[C@H]2CN(C(=O)Nc3nnco3)CCN2S(=O)(=O)c2ccc(C(F)(F)F)cc2)cc1 [Example 348, (R)-4-(4-trifluoromethyl-benzenesulfonyl)-piperazine-1,3-dicarboxylic acid 3-(4-isopropyl-benzylamide) 1-[1,3,4]oxadiazol-2-ylamide] | 100 to 1000 | 100 to 1000
CC(C)c1ccc(CNC(=O)[C@H]2CN(c3cc(C(=O)O)ccn3)CCN2S(=O)(=O)c2ccc(C(F)(F)F)cc2)cc1 [Example 349, 2-[(R)-3-(4-isopropyl-benzylcarbamoyl)-4-(4-trifluoromethyl-benzenesulfonyl)-piperazin-1-yl]-isonicotinic acid trifluoroacetate] | 100 to 1000 | > 1000
CC(C)c1ccc(S(=O)(=O)N2CCN(C(N)=O)CC2C(=O)NCc2ccc(C(F)(F)F)cc2)cc1 (stereo not shown) [Example 350, 4-(4-isopropyl-benzenesulfonyl)-piperazine-1,3-dicarboxylic acid 1-amide 3-(4-trifluoromethyl-benzylamide)] | > 1000 | > 1000
CC(=O)N1CCN(S(=O)(=O)c2cc(Cl)cc(Cl)c2)C(C(=O)NCc2ccc(C(F)(F)F)cc2)C1 (stereo not shown) [Example 351, 4-acetyl-1-(3,5-dichloro-benzenesulfonyl)-piperazine-2-carboxylic acid 4-trifluoromethyl-benzylamide] | > 1000 | > 1000
CC(C)c1ccc(CNC(=O)[C@H]2CN(c3nccn3C)CCN2S(=O)(=O)c2ccc(C(F)(F)F)cc2)cc1 [Example 352, (R)-4-(1-methyl-1H-imidazol-2-yl)-1-(4-trifluoromethyl-benzenesulfonyl)-piperazine-2-carboxylic acid 4-isopropyl-benzylamide] | 100 to 1000 | > 1000
CC(C)c1ccc(CNC(=O)[C@H]2CN(c3ncc[nH]3)CCN2S(=O)(=O)c2ccc(C(F)(F)F)cc2)cc1 [Example 353, (R)-4-(1H-imidazol-2-yl)-1-(4-trifluoromethyl-benzenesulfonyl)-piperazine-2-carboxylic acid 4-isopropyl-benzylamide] | 100 to 1000 | 100 to 1000
CNC(=O)c1sc(N2CCN(S(=O)(=O)c3ccc(OC(F)(F)F)cc3)[C@@H](C(=O)NCc3ccc(C(C)C)cc3)C2)nc1C [Example 354, (R)-4-(4-methyl-5-methylcarbamoyl-thiazol-2-yl)-1-(4-trifluoromethoxy-benzenesulfonyl)-piperazine-2-carboxylic acid 4-isopropyl-benzylamide] | < 100 | < 100
Cc1nc(N2CCN(S(=O)(=O)c3ccc(OC(F)(F)F)cc3)[C@@H](C(=O)NCc3ccc(C(C)C)cc3)C2)sc1C(=O)N(C)C [Example 355, (R)-4-(5-dimethylcarbamoyl-4-methyl-thiazol-2-yl)-1-(4-trifluoromethoxy-benzenesulfonyl)-piperazine-2-carboxylic acid 4-isopropyl-benzylamide] | < 100 | < 100
Cc1cc(C2CC2)ccc1CNC(=O)[C@H]1CN(c2nc(C)c(C(=O)O)s2)CCN1S(=O)(=O)c1ccc(OC(F)(F)F)cc1 [Example 356, 2-[(R)-3-(4-cyclopropyl-2-methyl-benzylcarbamoyl)-4-(4-trifluoromethoxy-benzenesulfonyl)-piperazin-1-yl]-4-methyl-thiazole-5-carboxylic acid] | < 100 | < 100
CC(C)c1ccc(CNC(=O)[C@H]2CN(c3ncc(C(=O)O)c(O)n3)CCN2S(=O)(=O)c2ccc(C(F)(F)F)cc2)cc1 [Example 357, 4-hydroxy-2-[(R)-3-(4-isopropyl-benzylcarbamoyl)-4-(4-trifluoromethyl-benzenesulfonyl)-piperazin-1-yl]-pyrimidine-5-carboxylic acid] | 100 to 1000 | > 1000
Cc1nc(N2CCN(S(=O)(=O)c3ccc(OC(F)(F)F)cc3)[C@@H](C(=O)NCc3ccc(C(C)C)cc3)C2)sc1C(=O)NCC(=O)OC(C)(C)C [Example 358, ({2-[(R)-3-(4-isopropyl-benzylcarbamoyl)-4-(4-trifluoromethoxy-benzenesulfonyl)-piperazin-1-yl]-4-methyl-thiazole-5-carbonyl}-amino)-acetic acid tert-butyl ester] | < 100 | < 100
Cc1nc(N2CCN(S(=O)(=O)c3ccc(OC(F)(F)F)cc3)[C@@H](C(=O)NCc3ccc(C(C)C)cc3)C2)sc1C(=O)NCCC(=O)OC(C)(C)C [Example 359, 3-({2-[(R)-3-(4-isopropyl-benzylcarbamoyl)-4-(4-trifluoromethoxy-benzenesulfonyl)-piperazin-1-yl]-4-methyl-thiazole-5-carbonyl}-amino)-propionic acid tert-butyl ester] | < 100 | < 100
Cc1nc(N2CCN(S(=O)(=O)c3ccc(OC(F)(F)F)cc3)[C@@H](C(=O)NCc3ccc(C(C)C)cc3)C2)sc1C(=O)NCC(=O)O [Example 360, ({2-[(R)-3-(4-isopropyl-benzylcarbamoyl)-4-(4-trifluoromethoxy-benzenesulfonyl)-piperazin-1-yl]-4-methyl-thiazole-5-carbonyl}-amino)-acetic acid] | < 100 | < 100
Cc1nc(N2CCN(S(=O)(=O)c3ccc(OC(F)(F)F)cc3)[C@@H](C(=O)NCc3ccc(C(C)C)cc3)C2)sc1C(=O)NCCC(=O)O [Example 361, 3-({2-[(R)-3-(4-isopropyl-benzylcarbamoyl)-4-(4-trifluoromethoxy-benzenesulfonyl)-piperazin-1-yl]-4-methyl-thiazole-5-carbonyl}-amino)-propionic acid] | < 100 | < 100

— patent US8017612B2, “Piperazine compound and use thereof as a HCV polymerase inhibitor” (priority 2006, dated 2011)
